Converted amounts (≈) assume the structure as drawn. Positions of bridges follow the written chain, without caps; N, C: chain ends. Non-standard residues stand in square brackets, D forms with d. Residues, ends and D or L forms follow the SMILES beside them. S5 = C=CCCC[C@](C)(N)C(=O)O
What was measured:
E. coli = conditions: CLSI broth microdilution, MH-II broth, 24 h 37 °C, AlamarBlue; ATCC 25922; 3 independent measurements
Procedure: (§1) According to the protocol of Clinical & Laboratory Standards Institute, the minimum inhibitory concentration (MIC) of the linear and stapled peptides against a panel of gram-positive and gram-negative bacteria was determined by the broth microdilution method. […]
(§2) Bacterial strains and culture
(§3) Bacterial type stains ATCC 25923 S. aureus, ATCC 12228 S. epidermidis, ATCC […]
(§4) aeruginosa and ATCC 13883 K. pneumoniae were obtained from Shanghai Bioresource Collection Center. The bacterial culture medium was purchased from Oxoid and autoclaved according to the instructions from manufacturer. The isolated strains were cultured in Mueller Hinton II broth and continuously shaken at 140 rpm for 18 hours to the middle of the exponential growth phase at 37 °C with an OD value of 0.4-0.5.
(§5) Bacterial suspensions with an OD value of 0.1, approximately […], were then diluted for further assays.
(§6) The minimal inhibition concentration (MIC) of the linear and stapled peptides was determined using the microbroth dilution method from the Clinical and Laboratory Standards Institute (CLSI)[2, 3]. Bacterial suspensions of 10 6 CFU/mL were prepared in MH-II broth and peptide solutions at varying concentrations were prepared in phosphate buffer saline (PBS). Then 50 μL peptide solution and 50 μL bacterial suspension were mixed in a 96 -well plate. Plates were incubated for 24 hours at 37 °C.
(§7) 10 μL AlamarBlue cell viability reagent (ThermoFisher Scientific, UK) was added to each well, then the plate was re -incubated for a further 2 hours at 37 °C. The MIC was recorded as the minimum concentration of peptides required to completely in hibit bacteria growth. For serum stability assessment, the peptide solutions were pre - incubated with 50% human serum for 4 h before the MIC determination. Experiments were performed in 3 independent measurements. […]

A. baumannii = conditions: CLSI broth microdilution, MH-II broth, 24 h 37 °C, AlamarBlue; ATCC 19606; 3 independent measurements
Procedure: as §1, §2, §3, §4, §5, §6, §7

P. aeruginosa = conditions: CLSI broth microdilution, MH-II broth, 24 h 37 °C, AlamarBlue; ATCC 27853; 3 independent measurements
Procedure: as §1, §2, §3, §4, §5, §6, §7

K. pneumoniae = conditions: CLSI broth microdilution, MH-II broth, 24 h 37 °C, AlamarBlue; ATCC 13883; 3 independent measurements
Procedure: as §1, §2, §3, §4, §5, §6, §7

S. aureus = conditions: CLSI broth microdilution, MH-II broth, 10^6 CFU/mL, 24 h 37 °C, AlamarBlue; ATCC 25923; 3 independent measurements
Procedure: as §1, §2, §3, §4, §5, §6, §7

E. faecalis = conditions: CLSI broth microdilution, MH-II broth, 24 h 37 °C, AlamarBlue; ATCC 29212; 3 independent measurements
Procedure: as §1, §2, §3, §4, §5, §6, §7

S. epidermidis = conditions: CLSI broth microdilution, MH-II broth, 24 h 37 °C, AlamarBlue; ATCC 12228; 3 independent measurements
Procedure: as §1, §2, §3, §4, §5, §6, §7

rabbit erythrocytes = assay: Hemolysis assay; conditions: rabbit erythrocytes 4% (v/v), 256 μg/mL peptide, 1 h 37 °C, absorbance 570 nm, 0.1% Triton X-100 control
Procedure: The hemolytic activity of peptides was tested using rabbit erythrocytes (Figure S13). […]
the supernatant was collected and analyzed by RP-HPLC, with a UV detector monitored at 220 nm. Record the peak area of the intact peptide and calculate the percentage of remaining peptide based on the integrated area as, Peptide remaining (%) = peak area of remaining peptide/peak area of intact peptide×100%. Experiments were performed […]
with 200 μL of 4% (v/v) rabbit erythrocyte suspension, and the mixed solution was diluted with rabbit red blood cell suspension to obtain a series of peptide stock solution with different concentrations by fold dilution. […] Separate the supernatant and use a microplate reader (BioTek, USA) to measure hemoglobin release. Measure the absorbance at a wavelength of 570nm and calculate the percentage of hemolysis as follows: hemolysis (%) = (Abspeptide-Absblank)/(Abscontrol-Absblank), where Absblank and Abscontrol were absorbance of samples treated with PBS and 0.1% Triton X-100, […]
N-phenyl-1-naphthylamine (NPN, Macklin, China) was used to evaluate the integrity of OM of E. coli treated with the linear and stapled peptides. […] Subsequently, add a final concentration of 10 μM of NPN in each well of the plate and after incubation for 30 m inutes, record the fluorescence at 420 nm using a microplate reader with an exc itation wavelength of 350 […]

CC[C@H](C)[C@H](NC(=O)[C@H](CCCNC(=N)N)NC(=O)[C@H](CCCCN)NC(C)=O)C(=O)N[C@H](C(=O)N[C@@H](CCC(N)=O)C(=O)N[C@@H](CCCNC(=N)N)C(=O)N[C@H](C(=O)N[C@@]1(C)CCCC=CCCC[C@@](C)(C(N)=O)NC(=O)[C@H](CC(C)C)NC(=O)[C@H](Cc2ccccc2)NC(=O)[C@H](CC(=O)O)NC1=O)[C@@H](C)CC)C(C)C [KR-12 (K8, R12)] (Ac-KRIVQRI[S5]DFL[S5]-NH2; staple 8-12)
MIC E. coli (E. coli): 64 µg/mL (≈ 40.5 µM) | MIC A. baumannii (A. baumannii): 16 µg/mL (≈ 10.1 µM) | MIC P. aeruginosa (P. aeruginosa): 256 µg/mL (≈ 162 µM) | MIC K. pneumoniae (K. pneumoniae): > 256 µg/mL | MIC S. aureus (S. aureus): 16 µg/mL (≈ 10.1 µM) | MIC E. faecalis (E. faecalis): 16 µg/mL (≈ 10.1 µM) | MIC S. epidermidis (S. epidermidis): 16 µg/mL (≈ 10.1 µM) | H256 (hemolysis percentage) (rabbit erythrocytes): 77.2 ± 0.3%

Reference: PMC10845205, “Discovery of novel antibacterial agent for the infected wound treatment: all-hydrocarbon stapling optimization of LL-37” (Theranostics, 2024)
